Experimental data as given in patent US7846735B2, “Compositions and methods for lipoprotein uptake assays” (General Electric Company, priority 2006, dated 2010).

Experiments:
[1] = pH dependence of dye fluorescence; assay type: physicochemical
Source text: The assays employ a pH-sensing cyanine dye, which is minimally fluorescent at neutral pH outside the cell, but highly fluorescent in the acidic environment (pKa ˜7.3; excitation peak 650 nm/emission peak 670 nm). In most instances, the lipoproteins or modified lipoproteins are taken up by cell-surface receptors through the process of receptor-mediated endocytosis. Once internalized, lipoproteins are transported to highly acidic vesicles. When labeled with CypHer5E dye, lipoproteins are minimally fluorescent at neutral pH outside the cell, but highly fluorescent in the acidic environment of the uptake vesicle. This translates into high signal-to-noise ratio compared to traditional dyes that are equally fluorescent inside or outside the cell. Additionally, the disclosed methods eliminate washing steps required for removal of excess of labeled lipoprotein in the media at the end of the protocol. […]
CypHer5E dye is 3 to 20 times more fluorescent in the acidic environment of the intracellular vesicles than at neutral pH outside the cell (pKa ˜7.3; excitation peak 650 nm/emission peak 670 nm). CypHer5E dye fluorescence is enhanced by the acidic conditions of lipoprotein-containing intracellular vesicles after receptor-mediated lipoprotein after the CypHer5E-AcLDL is internalized.

[2] = target: T1, scavenger receptor A (SR-A, CD204) (Mus musculus, UniProt P30204); assay: Inhibition of CypHer5E-AcLDL uptake by known SR-A ligands; assay type: cell-based; details: RAW264.7 mouse macrophages, FIG. 7
T1 construct: endogenous in cells; host or cells: RAW264.7 mouse macrophages
T1 sequence (P30204 1-458): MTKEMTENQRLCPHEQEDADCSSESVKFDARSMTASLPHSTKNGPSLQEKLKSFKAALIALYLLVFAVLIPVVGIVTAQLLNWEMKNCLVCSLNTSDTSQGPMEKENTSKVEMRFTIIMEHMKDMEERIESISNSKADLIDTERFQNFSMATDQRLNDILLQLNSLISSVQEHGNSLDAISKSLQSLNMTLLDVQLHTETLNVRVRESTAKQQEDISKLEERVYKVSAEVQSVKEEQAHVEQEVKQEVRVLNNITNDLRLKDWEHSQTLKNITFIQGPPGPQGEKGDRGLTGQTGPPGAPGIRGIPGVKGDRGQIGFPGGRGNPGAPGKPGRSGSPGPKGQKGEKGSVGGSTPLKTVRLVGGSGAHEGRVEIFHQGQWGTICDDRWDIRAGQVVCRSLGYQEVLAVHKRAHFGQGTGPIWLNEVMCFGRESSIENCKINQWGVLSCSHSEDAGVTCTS
Method: RAW264.7 Mouse Macrophages, J774A.1 Mouse Macrophages, U-2 OS Human Osteosarcoma Cells were seeded in standard cell culture flasks and cultured in Dulbecco's Modified Eagle Medium (DMEM) with 10% fetal bovine serum (FBS) until about 70% to about 80% confluent. On the day of the assay, the cells were washed twice with serum-free DMEM, and incubated for 30 minutes in cell culture incubator in DMEM containing 1 μM Cell Tracker Green dye. After staining with Cell Tracker Green dye, cells were washed three times with serum-free DMEM, scraped from tissue culture flask, and resuspended in DMEM with 12.5% Fetal Bovine Lipoprotein Deficient Serum (FBLDS) at 250,000 cells/ml.
80 μl of Cell Tracker Green-labeled cells at 250,000 cells/ml were added to each well of ViewPlate 96-well plate in DMEM with 12.5% Fetal Bovine Lipoprotein Deficient Serum (FBLDS). For inhibitor studies, 10 μl of 10-fold stock of the inhibitor in DMEM containing 10% dimethyl sulfoxide (DMSO) were added to each well. 10 μl of DMEM containing 10% DMSO were added for control wells. Cells were pre-incubated for 30 minutes at 37° C. in a cell culture incubator in the presence of the inhibitor before addition of labeled AcLDL. At the end of pre-incubation period, 10 μl of 100 μg/ml CypHer5E-AcLdL solution were added to each well. The incubation continued for another 2 to 18 hours at 37° C. in cell culture incubator before imaging. The Dil AcLDL complex assay was identical to CypHer5E-AcLDL assay except that Dil AcLDL complex was added to cells in place of CypHer5E-AcLDL conjugate.
Following incubation, images of CypHer5E-AcLDL uptake were acquired on IN Cell Analyzer 1000 or 3000 (GE Healthcare) using a 10× or 20× objective and FITC/Cy5 excitation/emission filters. Analysis was performed using Granularity Analysis and Object Intensity Analysis Modules within IN Cell Analyzer system software suite or using Developer™ Image Analysis software.

Molecule | pKa [1] | inhibition of pH-sensing cyanine dye conjugate uptake (in words) [2]
CC1(C)C(/C=C/C=C/C=C2/Nc3ccc(S(=O)(=O)O)cc3C2(C)CCCCCC(=O)O)=[N+](CCCCS(=O)(=O)[O-])c2ccc(S(=O)(=O)O)cc21 (stereo not shown) [CypHer5E, 2-{[1E,3E,5E)-5-(3-methyl-3-(5-carboxypentyl)-5-sulfo-1,3-dihydro-2H-indol-2-ylidene]-1,3-pentadienyl}-3,3-dimethyl-5-sulfo-1-(4-sulfobutyl)-3H-indolium] | ~7.3 | –
Dextran Sulfate MW 500,000 [Dex SO4] | – | inhibition
Polyguanylic acid potassium salt [poly G] | – | inhibition
Polyinosinic acid potassium salt [poly I] | – | inhibition
